These results are taken from ChEMBL document CHEMBL1909046, “DrugMatrix in vitro pharmacology data”.

The target in assay [1] is Sodium-dependent dopamine transporter (Homo sapiens, UniProt Q01959). As to the kind of experiment: DRUGMATRIX: Dopamine Transporter radioligand binding (ligand: [125I] RTI-55). Type of assay: cell membranes, CHO-K1, Membrane. The following applies: Not Active = under 50% inhibition at 10 µM; for IC50: cho-k1; for pIC50: read-out: IC50; for pKi: read-out: Ki.
Assay [2] can be described thus: DRUGMATRIX: Platelet-Derived Growth Factor (PDGF) radioligand binding (ligand: [125I] PDGF). The following applies: nih3t3; Not Active = under 50% inhibition at 10 µM. Type of assay: cell-based.
A short description of assay [3]: DRUGMATRIX: Phosphodiesterase PDE4 enzyme inhibition (substrate: [3H]cAMP + cAMP). The following applies: u-937; Not Active = under 50% inhibition at 10 µM.
Assay [4] in a line: DRUGMATRIX: GABAA, Chloride Channel, TBOB radioligand binding (ligand: [3H] TBOB). Type of assay: cell membranes, Rattus norvegicus, Wistar, Cerebral cortex, Membrane. The following applies: Not Active = under 50% inhibition at 10 µM.
For assay [5], the target named is 5-hydroxytryptamine receptor 2B (Homo sapiens, UniProt P41595). The format is cell membranes, CHO-K1, Membrane. Note: in other assays of this panel Not Active means under 50% inhibition at 10 µM.
Chain of 5-hydroxytryptamine receptor 2B (P41595 whole entry): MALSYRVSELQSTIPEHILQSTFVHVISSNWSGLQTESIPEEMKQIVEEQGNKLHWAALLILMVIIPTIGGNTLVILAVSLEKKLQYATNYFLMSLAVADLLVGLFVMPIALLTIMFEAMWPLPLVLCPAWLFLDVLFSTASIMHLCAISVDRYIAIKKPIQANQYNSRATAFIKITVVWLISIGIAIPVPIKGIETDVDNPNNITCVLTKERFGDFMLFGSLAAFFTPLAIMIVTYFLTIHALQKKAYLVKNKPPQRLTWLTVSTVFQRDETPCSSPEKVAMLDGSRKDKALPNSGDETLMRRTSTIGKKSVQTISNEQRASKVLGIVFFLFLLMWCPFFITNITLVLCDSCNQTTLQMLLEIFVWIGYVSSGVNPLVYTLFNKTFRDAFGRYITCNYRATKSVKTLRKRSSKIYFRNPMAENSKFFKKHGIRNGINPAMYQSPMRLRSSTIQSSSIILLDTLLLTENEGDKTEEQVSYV
The next assay has as its target T1, Adenosine receptor A3 (Homo sapiens, UniProt P0DMS8).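 Note: radioligand binding assay with AB-MECA serving as the labeled ligand; in other assays of this panel Not Active means under 50% inhibition at 10 µM.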
T1 sequence (P0DMS8 whole entry): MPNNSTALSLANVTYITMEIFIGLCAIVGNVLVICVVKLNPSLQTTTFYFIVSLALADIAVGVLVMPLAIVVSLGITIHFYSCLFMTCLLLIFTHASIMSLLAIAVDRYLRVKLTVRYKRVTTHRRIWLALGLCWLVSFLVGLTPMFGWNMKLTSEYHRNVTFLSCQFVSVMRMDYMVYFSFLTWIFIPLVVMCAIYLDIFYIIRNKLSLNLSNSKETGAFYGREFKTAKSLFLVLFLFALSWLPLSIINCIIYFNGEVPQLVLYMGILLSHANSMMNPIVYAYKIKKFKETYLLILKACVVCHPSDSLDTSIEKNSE
The format is cell membranes, CHO-K1, Membrane. The following applies: for IC50: cho-k1; for pIC50: read-out: IC50; for pKi: read-out: Ki.

The structures appear in SMILES notation. pIC50, pKi: −log10 of the molar value.

Chain of Sodium-dependent dopamine transporter (Q01959 whole entry): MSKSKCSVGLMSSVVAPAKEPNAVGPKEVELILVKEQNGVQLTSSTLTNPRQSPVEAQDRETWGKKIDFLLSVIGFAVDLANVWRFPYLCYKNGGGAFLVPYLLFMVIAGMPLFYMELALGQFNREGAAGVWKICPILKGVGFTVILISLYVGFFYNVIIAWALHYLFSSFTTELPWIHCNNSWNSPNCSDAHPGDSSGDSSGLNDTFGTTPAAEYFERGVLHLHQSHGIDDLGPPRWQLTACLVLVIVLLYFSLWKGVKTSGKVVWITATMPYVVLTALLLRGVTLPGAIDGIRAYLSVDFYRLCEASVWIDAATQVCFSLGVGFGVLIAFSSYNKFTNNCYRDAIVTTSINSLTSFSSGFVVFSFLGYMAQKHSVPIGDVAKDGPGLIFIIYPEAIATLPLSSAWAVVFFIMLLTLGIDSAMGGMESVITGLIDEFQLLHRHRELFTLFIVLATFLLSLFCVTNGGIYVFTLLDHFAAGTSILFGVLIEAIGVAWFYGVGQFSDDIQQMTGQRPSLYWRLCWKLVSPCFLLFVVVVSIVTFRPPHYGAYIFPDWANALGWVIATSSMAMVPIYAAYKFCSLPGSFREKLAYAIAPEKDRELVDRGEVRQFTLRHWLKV

Regarding `CCn1cc(C(=O)O)c(=O)c2cc(F)c(N3CCNCC3)nc21` [ENOXACIN], the IC50 entry (in assay [1]; in assay [2]; in assay [3]; in assay [4]; in assay [5] (cho-k1); against Adenosine receptor A3) was “Not Active” throughout. Moreover, the Ki result in assay [2], in assay [3] and in assay [4] was “Not Active” throughout.
As for `CCC(=O)O[C@H]1[C@H](O[C@@H]2[C@@H](C)[C@H](O[C@H]3C[C@@](C)(OC)[C@@H](O)[C@H](C)O3)[C@@H](C)C(=O)O[C@H](CC)[C@@](C)(O)[C@H](O)[C@@H](C)C(=O)[C@H](C)C[C@@]2(C)O)O[C@H](C)C[C@@H]1N(C)C` [ERYTHROMYCIN PROPIONATE], the IC50 entry (in assay [1]; in assay [2]; in assay [3]; in assay [4]; in assay [5] (cho-k1); at Adenosine receptor A3) was “Not Active” in each case. Besides, the Ki result in assay [2], in assay [3] and in assay [4] was “Not Active” in each case.
Consider `C=C(CC)C(=O)c1ccc(OCC(=O)O)c(Cl)c1Cl` [ETHACRYNIC ACID], for which the IC50 result (in assay [1]; in assay [2]; in assay [3]; in assay [4]; in assay [5] (cho-k1); against Adenosine receptor A3) was “Not Active” in each case. Besides, the Ki result in assay [2], in assay [3] and in assay [4] was “Not Active” in each case.
In the case of `C#C[C@]1(O)CC[C@H]2[C@@H]3CCc4cc(O)ccc4[C@H]3CC[C@@]21C` [ETHINYL ESTRADIOL], the negative logarithm of the IC50 (pIC50) – broadly, the IC50 on a negative log10 scale, so that one unit is a factor of ten – is 6.25 in assay [1] and 4.48 on Adenosine receptor A3. In addition, the pKi (in general, −log10 of the Ki, conventionally taken in molar units) in assay [1] is 6.35; at Adenosine receptor A3, 4.73. Also, the IC50 result in assay [2], in assay [3], in assay [4] and in assay [5] (cho-k1) was “Not Active” each time. Besides, the Ki result in assay [2], in assay [3] and in assay [4] was “Not Active” throughout.
For `OCCO` [ETHYLENE GLYCOL], the IC50 result (in assay [1]; in assay [2]; in assay [3]; in assay [4]; in assay [5] (cho-k1); at Adenosine receptor A3) was “Not Active” in each case. In addition, the Ki result in assay [2], in assay [3] and in assay [4] was “Not Active” in each case.
Take `CC(=O)OCC(CCn1cnc2cnc(N)nc21)COC(C)=O` [FAMCICLOVIR]: the IC50 entry (in assay [1]; in assay [2]; in assay [3]; in assay [4]; in assay [5] (cho-k1); on Adenosine receptor A3) was “Not Active” each time. Moreover, the Ki result in assay [2], in assay [3] and in assay [4] was “Not Active” throughout.
Turning to `O=C(O)Cc1ccc(-c2ccccc2)cc1` [FELBINAC], the IC50 entry (in assay [1]; in assay [2]; in assay [3]; in assay [4]; in assay [5] (cho-k1); against Adenosine receptor A3) was “Not Active” throughout. Also, the Ki result in assay [2], in assay [3] and in assay [4] was “Not Active” each time.
Take `CCOC(=O)C1=C(C)NC(C)=C(C(=O)OC)C1c1cccc(Cl)c1Cl` (stereo not given) [FELODIPINE]: the IC50 result in assay [1], in assay [2], in assay [3], in assay [4] and in assay [5] (cho-k1) was “Not Active” in each case. The Ki result in assay [2], in assay [3] and in assay [4] was “Not Active” each time. For the same molecule, on Adenosine receptor A3, the negative-log IC50 (pIC50) was 5.98. Further, at Adenosine receptor A3, the pKi is 6.22.
Consider `CC(C(=O)O)c1ccc(-c2ccccc2)c(F)c1` (stereo not given) [FLURBIPROFEN], for which the IC50 entry (in assay [1]; in assay [2]; in assay [3]; in assay [4]; in assay [5] (cho-k1); on Adenosine receptor A3) was “Not Active” each time. The Ki entry in assay [2], in assay [3] and in assay [4] was “Not Active” in each case.
Turning to `Cc1cn[nH]c1` [FOMEPIZOLE], the IC50 result (in assay [1]; in assay [2]; in assay [3]; in assay [4]; in assay [5] (cho-k1); at Adenosine receptor A3) was “Not Active” throughout. The Ki result in assay [2], in assay [3] and in assay [4] was “Not Active” throughout.
`NC[C@@H]1O[C@H](O[C@H]2[C@@H](O)[C@H](O[C@@H]3[C@@H](O)[C@H](N)C[C@H](N)[C@H]3O[C@H]3O[C@H](CN)[C@@H](O)[C@H](O)[C@H]3N)O[C@@H]2CO)[C@H](N)[C@@H](O)[C@@H]1O` [FRAMYCETIN]: the IC50 entry (in assay [1]; in assay [2]; in assay [3]; in assay [4]; on Adenosine receptor A3) was “Not Active” each time. For the same molecule, the Ki result in assay [2], in assay [3], in assay [4] and in assay [5] (cho-k1) was “Not Active” throughout.
As for `C[C@H]([C@](O)(Cn1cncn1)c1ccc(F)cc1F)S(C)(=O)=O` [GENACONAZOLE], the IC50 result (in assay [1]; in assay [2]; in assay [3]; in assay [4]; in assay [5] (cho-k1); against Adenosine receptor A3) was “Not Active” each time. For the same molecule, the Ki entry in assay [2], in assay [3] and in assay [4] was “Not Active” in each case.
`Cc1cnc(C(=O)NCCc2ccc(S(=O)(=O)NC(=O)NC3CCCCC3)cc2)cn1` [GLIPIZIDE]: the IC50 entry (in assay [1]; in assay [2]; in assay [3]; in assay [4]; in assay [5] (cho-k1); on Adenosine receptor A3) was “Not Active” in each case. In addition, the Ki result in assay [2], in assay [3] and in assay [4] was “Not Active” throughout.
With `Cc1c(F)c(N2CCNC(C)C2)cc2c1c(=O)c(C(=O)O)cn2C1CC1` (stereo not given) [GREPAFLOXACIN], the IC50 entry (in assay [1]; in assay [2]; in assay [3]; in assay [4]; in assay [5] (cho-k1); at Adenosine receptor A3) was “Not Active” throughout. The Ki entry in assay [2], in assay [3] and in assay [4] was “Not Active” in each case.
Turning to `COc1ccccc1OCC(O)CO` (stereo not given) [GUAIFENESIN], the IC50 result (in assay [1]; in assay [2]; in assay [3]; in assay [4]; in assay [5] (cho-k1); against Adenosine receptor A3) was “Not Active” each time. Moreover, the Ki entry in assay [2], in assay [3] and in assay [4] was “Not Active” each time.
Regarding `N=C(N)N/N=C/c1c(Cl)cccc1Cl` [GUANABENZ], the IC50 result (in assay [1]; in assay [2]; in assay [3]; in assay [4]; on Adenosine receptor A3) was “Not Active” in each case. In addition, the Ki entry in assay [2], in assay [3] and in assay [4] was “Not Active” each time. In addition, the pIC50 in assay [5] (read-out: IC50) was 7.01. Further, the negative logarithm of the Ki (pKi) in assay [5] (read-out: Ki) was 7.21.
In the case of `C[C@]12CCC(=O)C=C1CC[C@@H]1[C@@H]2[C@@H](O)C[C@@]2(C)[C@H]1CC[C@]2(O)C(=O)CO` [HYDROCORTISONE], the IC50 result (in assay [1]; in assay [2]; in assay [3]; in assay [4]; in assay [5] (cho-k1); against Adenosine receptor A3) was “Not Active” throughout. For the same molecule, the Ki result in assay [2], in assay [3] and in assay [4] was “Not Active” throughout.
Turning to `C/C=C\c1ccc(O)c(OC)c1` [ISOEUGENOL], the IC50 entry (in assay [1]; in assay [2]; in assay [3]; in assay [4]; in assay [5] (cho-k1); against Adenosine receptor A3) was “Not Active” in each case. Moreover, the Ki entry in assay [2], in assay [3] and in assay [4] was “Not Active” in each case.
For the molecule `NC[C@H]1O[C@H](O[C@H]2[C@H](O)[C@@H](O[C@H]3O[C@H](CO)[C@@H](O)[C@H](N)[C@H]3O)[C@H](N)C[C@@H]2N)[C@H](O)[C@@H](O)[C@@H]1O` [KANAMYCIN], the IC50 result (in assay [1]; in assay [2]; in assay [3]; in assay [4]; in assay [5] (cho-k1); against Adenosine receptor A3) was “Not Active” in each case. For the same molecule, the Ki entry in assay [2], in assay [3] and in assay [4] was “Not Active” in each case.
`CC[C@H](C)C(=O)O[C@H]1C[C@@H](C)C=C2C=C[C@H](C)[C@H](CC[C@@H]3C[C@@H](O)CC(=O)O3)[C@H]21` [LOVASTATIN]: in assay [1], the pIC50 was 5.00. Further, the pKi in assay [1] is 5.10. Moreover, the IC50 result (in assay [2]; in assay [3]; in assay [4]; in assay [5] (cho-k1); against Adenosine receptor A3) was “Not Active” each time. Further, the Ki entry in assay [2], in assay [3] and in assay [4] was “Not Active” each time.
